Experimental data taken from patent publication US4956389A, “Compounds having calcium blocking activity” (priority 1982, dated 1990).
Several values for one entry are separate records, joined by “and”; a condition that tells them apart may be missing. Equal values may be shown once.

Experiments:
[1] = system: mitochondria of liver of rats; assay: Inhibition of Ca2+-uptake in mitochondria of liver of rats; assay type: biochemical, rat; conditions: 250 μM
Protocol: The mitochondria prepared according to classical methods are diluted to a concentration of 1.5 mg/cc in a medium of incubation which has the following composition:
After a period of 15 minutes of preincubation at 20° C. there was added ^45 CaCl2 (50 n mol/mg prot.).
In a manner analogous to the preceding experiments, the concentrations determined after two minutes were called the concentration at 0 period of time. The other controls were determined after 5 minutes, after 10 minutes and after 15 minutes. For the determination of Ca^2+, the experiment was carried out in a manner analogous to the preceding experiments.
The results are reported in Table 3 as the quantity of Ca transferred per mg of protein

rats [2] = assay: Effect on the multiple cerebral infarct in rats (intracarotid sodium arachidonate); assay type: in vivo, rat; conditions: 15 minutes prior to the infarct
Protocol: The intracarotid injection of sodium arachidonate (0.1 mg) causes in rats an edema reaction accompanied by an accumulation of calcium in the brain tissue and a decrease, on the other hand, of the cholesterol level.

[3] = system: mitochondria of liver of rats; assay: Study on the Ca2+-efflux in mitochondria of liver of rats; assay type: biochemical, rat; conditions: 250 μM
Description: The mitochondria of liver of rats prepared as in the preceding experiment were "charged" with Ca and subsequently, taken in a medium deprived of this ion. In the presence of an uncoupling agent or "Ruthenium Red", there is a flow of Ca^2+ ion from the mitochondria into the medium.
The results reported in Table 4 are expressed as the quantity of Ca transferred from the mitochondria per mg of protein per minute.

rats [4] = assay: Antagonistic effect to biochemical disturbances during the post-oligemic period in rats; assay type: in vivo, rat
Protocol: Oligemia in rats is caused by simultaneous bilateral occlusion of the carotid arteries associated with a slight decrease (8-9 kPa) of blood pressure and is maintained for 60 minutes. After removal of the occlusion, the post-oligemic period is followed for several days. In this case, the observation is continued up to the third day, at the time during which the brain accumulation of Ca^++ ions reaches the maximum.
The substances YS 035 or Nicardipine respectively, are administered to rats, 1, 5, 18, 24, 42 and 71 hours after having removed the carotid occlusion. The rats are sacrificed after 72 hours and the tissues are rapidly removed in order to determine their content of water, calcium and potassium.

dogs = assay: Effect on the myocardial infarct in the subacute phase in dogs (method of Harris); assay type: in vivo, dog; conditions: 0.1 mg/kg intravenously, three times within 48 hours
Protocol: The tying up of the […] coronary artery by the method of Harris causes the following effects:
The treatment with YS 035 in the dose of 0.1 mg/kg intravenously, carried after tying the coronary artery and three times within 48 hours in the same dose has provided the following results: […]

portions of the aorta = assay: Contraction of aorta portions by arachidonic acid after oral administration to rabbits (studies in vivo); set-up: species or system rabbit
Protocol: Both substances YS 035 and Nicardipine have been administered orally for a period of three consecutive days to rabbits in such a manner that the last administration of each substance was carried out one hour prior to killing the animals. The portions of the aorta had then been incubated either in PRP as well as in the Krebs-Henseleit liquid.

calcium entry = assay: Calcium antagonistic activity (general statement); conditions: compared with nifedipine
[5] = system: kidney cells in newborn hamsters; assay: Inhibition of Ca2+-uptake in kidney cells in newborn hamsters; assay type: cell-based, hamster
Protocol: Cells of kidneys of newborn hamsters have been washed and then resuspended several times in concentration of 5·10^6 /cc in the medium of the following composition:
After 15 minutes of preincubation at 30° C., the reaction was made to begin by addition to the medium of ^45 CaCl2 1 mM (0.1μCi/cc). The concentrations at 0 period of time were the concentrations determined two minutes after the addition. The other controls were carried out after 5 minutes, 10 minutes, and 20 minutes. The determination of [Ca^2+ ] was carried out as in the preceding experiment.

rats [6] = assay: Anti-arrythmic and antiischemic effect in rats (left coronary artery tied); assay type: in vivo, rat
Protocol: The left coronary artery, when it is tied, induces in the anesthetized rats a precocious arrythmia (30 minutes) particularly ectopic beats, ventricular tachycardia (VT), ventricular fibrillation (VF) according to the methods of Selye 1960, Clark 1980 and Parratt 1982.

Q: For COc1ccc(CCN(C)CCc2ccc(OC)c(OC)c2)cc1OC [YS 035, N-methyl-N-bis-(3,4-dimethoxy-phenyl-ethyl)amine], which “Ca2+-uptake” value ([1]; 20° C., control 14.3) is on record?
A: 11.0 n g ions/mg prot.

Q: What about the “inhibitory activity on the uptake of Ca (in words)” value ([1]; compared with nifedipine) of the same molecule?
A: slightly inferior to the activity of nifedipine

Q: What about the “entry of calcium in brain tissue (in words)” value (rats [2]; 1 mg/kg intravenously) of the same molecule?
A: reduces moderately the entry of calcium

Q: And the “other changes at the biochemical level (in words)” value (rats [2]; intravenously, 1, 3.3 and 10 mg/kg)?
A: no effect

Q: What about the “uncoupling action (in words)” value [3] of the same molecule?
A: does not exhibit this action

Q: And the “Ca2+-efflux induced by Ruthenium red” value ([3]; control 0.7)?
A: 0.6 n g ions/min. mg/prot

Q: And the “Ca2+-efflux induced by uncoupling agent” value ([3]; control 8.3)?
A: 5.4 n g ions/min. mg/prot

Q: What about the “Cerebral concentration, Ca++” value (rats [4]; 3 mg·Kg^-1 P.O. 7×, 72 h, post-oligemic controls 28.2 ± 3.22) of the same molecule?
A: 10.7 ± 2.46 mmol·Kg^-1 of dry substance

Q: And the “Cerebral concentration, H2O” value (rats [4]; 3 mg·Kg^-1 P.O. 7×, 72 h, post-oligemic controls 80.1 ± 0.37)?
A: 79.0 ± 0.44%

Q: What about the “Cerebral concentration, K+” value (rats [4]; 3 mg·Kg^-1 P.O. 7×, 72 h, post-oligemic controls 366.2 ± 12.58) of the same molecule?
A: 420.0 ± 11.85 mmol·Kg^-1 of dry substance

Q: What about the “intracellular accumulation of Ca++ ions (in words)” value (rats [4]; rat, in vivo) of the same molecule?
A: reduce substantially

Q: What about the “seriousness of the cerebral edema (in words)” value (rats [4]; rat, in vivo) of the same molecule?
A: capable of reducing the seriousness of the cerebral edema

Q: What about the “consumption of glucose in the myocardium (in words)” value (dogs) of the same molecule?
A: not changed

Q: What about the “consumption of lactate (in words)” value (dogs) of the same molecule?
A: has a tendency to return to normality

Q: And the “consumption of oxygen (in words)” value (dogs)?
A: increases substantially

Q: What about the “coronary blood flow (in words)” value (dogs) of the same molecule?
A: remains similar to that of the control groups, or at the most tends to increase moderately

Q: And the “coronary vascular resistance (in words)” value (dogs)?
A: not only is reduced, but becomes inferior to that of the control group

Q: And the “index of the aortic flow (in words)” value (dogs)?
A: not changed

Q: And the “index of work of the left ventricle (in words)” value (dogs)?
A: significantly higher than that present in the dogs with the infarct

Q: And the “ratio DPTI/TTI (in words)” value (dogs)?
A: not changed

Q: And the “uptake of the free fatty acids (in words)” value (dogs)?
A: increases and reaches also a value twice the basal flow measured in healthy control animals

Q: What about the “Amplitude of contraction, medium Krebs, individual values” (portions of the aorta; 10 mg·Kg^-1 P.O., Krebs, controls 12 ± 2.3) of the same molecule?
A: -6 mm and +7 mm

Q: What about the “Amplitude of contraction, PRP, individual values” (portions of the aorta; 10 mg·Kg^-1 P.O., PRP, controls 30 ± 8.0) of the same molecule?
A: +28 mm

Q: What about the “site of action (in words)” value (portions of the aorta; aortic endothelial level, particularly PGI2) of the same molecule?
A: act directly on the synthesis of prostaglandin

Q: What about the “calcium antagonistic activity (in words)” value (calcium entry) of the same molecule?
A: strong calcium antagonistic activity, comparable to nifedipine

Q: What about the “Ca2+-uptake” value ([5]; 250 μM, 30° C., control 11.9) of the same molecule?
A: 7.5 n g ions/mg prot/15'

Q: And the “inhibitory action on the uptake of Ca (in words)” value ([5]; 250 μM, compared with nifedipine)?
A: superior to the activity of nifedipine

Q: What about the percent change in Ca2+-uptake versus control at 250 µM ([5]; Mesocricetus auratus, 0.25 h, 15 min) of the same molecule?
A: -36.9%

Q: And the “% Death” value (rats [6]; 0.156 mg/Kg I.V.)?
A: 20%

Q: And the “Latent Time Death” value (rats [6]; 0.156 mg/Kg I.V.)?
A: 26 min

Q: What about the Latent time (rats [6]; 0.156 mg/Kg I.V.) of the same molecule?
A: 22

Q: What about the No. ectopic beats (rats [6]; 0.156 mg/Kg I.V.) of the same molecule?
A: 907

Q: And the VF (rats [6]; 0.156 mg/Kg I.V.)?
A: 4 s

Q: What about the “VF (%)” value (rats [6]; 0.156 mg/Kg I.V.) of the same molecule?
A: 40%

Q: And the VT (rats [6]; 0.156 mg/Kg I.V.)?
A: 34 s

Q: And the “% Death” value (rats [6]; 0.625 mg/Kg I.V.)?
A: 0%

Q: And the “Latent Time Death” value (rats [6]; 0.625 mg/Kg I.V.)?
A: > 30 min

Q: What about the Latent time (rats [6]; 0.625 mg/Kg I.V.) of the same molecule?
A: 30

Q: What about the No. ectopic beats (rats [6]; 0.625 mg/Kg I.V.) of the same molecule?
A: 646

Q: What about the VF (rats [6]; 0.625 mg/Kg I.V.) of the same molecule?
A: 0 s

Q: And the “VF (%)” value (rats [6]; 0.625 mg/Kg I.V.)?
A: 0%

Q: What about the VT (rats [6]; 0.625 mg/Kg I.V.) of the same molecule?
A: 9 s

Q: And the “% Death” value (rats [6]; 1.25 mg/Kg I.V.)?
A: 0%

Q: What about the “Latent Time Death” value (rats [6]; 1.25 mg/Kg I.V.) of the same molecule?
A: > 30 min

Q: And the Latent time (rats [6]; 1.25 mg/Kg I.V.)?
A: 30

Q: And the No. ectopic beats (rats [6]; 1.25 mg/Kg I.V.)?
A: 684

Q: What about the VF (rats [6]; 1.25 mg/Kg I.V.) of the same molecule?
A: 0 s

Q: And the “VF (%)” value (rats [6]; 1.25 mg/Kg I.V.)?
A: 0%

Q: What about the VT (rats [6]; 1.25 mg/Kg I.V.) of the same molecule?
A: 29 s

Q: And the “% Death” value (rats [6]; 2.5 mg/Kg I.V.)?
A: 0%

Q: What about the “Latent Time Death” value (rats [6]; 2.5 mg/Kg I.V.) of the same molecule?
A: > 30 min

Q: What about the Latent time (rats [6]; 2.5 mg/Kg I.V.) of the same molecule?
A: 26

Q: What about the No. ectopic beats (rats [6]; 2.5 mg/Kg I.V.) of the same molecule?
A: 725

Q: And the VF (rats [6]; 2.5 mg/Kg I.V.)?
A: 9 s

Q: And the “VF (%)” value (rats [6]; 2.5 mg/Kg I.V.)?
A: 20%

Q: And the VT (rats [6]; 2.5 mg/Kg I.V.)?
A: 34 s

Q: What about the “% Death” value (rats [6]; 5 mg/Kg I.V.) of the same molecule?
A: 0%

Q: And the “Latent Time Death” value (rats [6]; 5 mg/Kg I.V.)?
A: > 30 min

Q: What about the Latent time (rats [6]; 5 mg/Kg I.V.) of the same molecule?
A: 21

Q: What about the No. ectopic beats (rats [6]; 5 mg/Kg I.V.) of the same molecule?
A: 1287

Q: What about the VF (rats [6]; 5 mg/Kg I.V.) of the same molecule?
A: 5 s

Q: What about the “VF (%)” value (rats [6]; 5 mg/Kg I.V.) of the same molecule?
A: 50%

Q: What about the VT (rats [6]; 5 mg/Kg I.V.) of the same molecule?
A: 62 s

Q: What about the “% Death” value (rats [6]; 10 mg/Kg I.V.) of the same molecule?
A: 0%

Q: What about the “Latent Time Death” value (rats [6]; 10 mg/Kg I.V.) of the same molecule?
A: > 30 min

Q: And the Latent time (rats [6]; 10 mg/Kg I.V.)?
A: 30

Q: What about the No. ectopic beats (rats [6]; 10 mg/Kg I.V.) of the same molecule?
A: 474

Q: And the VF (rats [6]; 10 mg/Kg I.V.)?
A: 0 s

Q: What about the “VF (%)” value (rats [6]; 10 mg/Kg I.V.) of the same molecule?
A: 0%

Q: And the VT (rats [6]; 10 mg/Kg I.V.)?
A: 9 s

Q: What about the “% Death” value (rats [6]; 20 mg/Kg I.V.) of the same molecule?
A: 0%

Q: What about the “Latent Time Death” value (rats [6]; 20 mg/Kg I.V.) of the same molecule?
A: > 30 min

Q: And the Latent time (rats [6]; 20 mg/Kg I.V.)?
A: 20

Q: What about the No. ectopic beats (rats [6]; 20 mg/Kg I.V.) of the same molecule?
A: 777

Q: What about the VF (rats [6]; 20 mg/Kg I.V.) of the same molecule?
A: 10 s

Q: And the “VF (%)” value (rats [6]; 20 mg/Kg I.V.)?
A: 50%

Q: And the VT (rats [6]; 20 mg/Kg I.V.)?
A: 22 s

Q: What about the “dose-effect relationship (in words)” value (rats [6]; above 10 mg/kg, endovenous) of the same molecule?
A: there is a regression of the results

Q: And the “onset of VF, VT and death (in words)” value (rats [6]; endovenous, between 0.625 and 10 mg/kg)?
A: prevents the onset of the most serious arrythmia such as VF and VT and the death
